Laboratory results: PMC10609152, “Synthesis, Computational, and Anticancer In Vitro Investigations of Aminobenzylnaphthols Derived from 2-Naphtol, Benzaldehydes, and α-Aminoacids via the Betti Reaction” (Molecules, 2023)
Where two headings read alike, the source gives them in different places.

Columns and labels:
[1] = tested on: BxPC-3 cells; experiment: MTT assay, BxPC-3; type: cell-based; conditions: Homo sapiens
From the text: (§1) The MTT assay, also known as the 3-(4,5-dimethylthiazol-2-yl)-2,5-diphenyltetrazolium bromide assay, is a colorimetric assay used in biological and biomedical research to determine cell viability and proliferation. The MTT assay works on the assumption that live cells with active metabolism convert MTT into formazan crystals. These crystals are insoluble; however, they can be dissolved in an organic solvent such as DMSO to produce a colorful solution. The color intensity is proportional to the number of viable cells present in the culture.
(§2) BxPC-3, HT-29, and WI-38 cells were seeded on 96-well plates at a density of approximately 8–10 × 10^3 cells per 100 µL medium/well. Cells were allowed to grow for 24 h in controlled conditions (37 °C; 5% CO2). […] The experimental design included nontreated controls and blanks (wells without cells). Following 24 or 72 h of culture with the investigated compounds, 20 μL of MTT tetrazolium salt (5 mg/mL in PBS) was added to each well, and the plates were incubated for 3 h in a humidified environment (37 °C; 5% CO2). The solutions were withdrawn after incubation, and 100 μL of DMSO was added to dissolve the formazan complexes. Afterward, a spectrophotometer (microplate reader Power Wave XS BioTek Instruments, Inc., Winooski, VT, USA) reading at 570 nm was conducted. The experiments were carried out in duplicates.
(§3) GraphPad Prism 7 software was used to calculate the concentration of an MMZ compound reflecting a 50% growth inhibition (IC50). IC50 is defined as a concentration of tested compound that leads to a reduction in cell pool viability by 50% compared to the negative control (accepted as 100%). % cell viability=Absorbance value of treated cells−Absorbance value of blank/(Absorbance value of untreated cells−Absorbance value of blank)×100%

[2] = tested on: HT-29 cells; experiment: MTT assay, HT-29; type: cell-based; conditions: Homo sapiens
From the text: as §1, §2, §3

[3] = MTT cell viability, WI-38 normal fibroblasts; type: cell-based; conditions: human, read-out: % cell viability ± SD; for viability at 24 h: WI-38, 24 h; for viability at 72 h: WI-38, 72 h
Experimental: as §2, §3

[4] = solubility (remark); type: physicochemical
[5] = BxPC-3, 24-h MTT, independent experiment 1, read-out: IC50(1)
[6] = BxPC-3, 24-h MTT, independent experiment 2, read-out: IC50(2)
[7] = BxPC-3, 24-h MTT, read-out: Mean IC50 ± SD
[8] = BxPC-3, 72-h MTT, independent experiment 1, read-out: IC50(1)
[9] = BxPC-3, 72-h MTT, independent experiment 2, read-out: IC50(2)
[10] = BxPC-3, 72-h MTT, read-out: Mean IC50 ± SD
[11] = HT-29, 24-h MTT, independent experiment 1, read-out: IC50(1)
[12] = HT-29, 24-h MTT, independent experiment 2, read-out: IC50(2)
[13] = HT-29, 72-h MTT, independent experiment 1, read-out: IC50(1)
[14] = HT-29, 72-h MTT, independent experiment 2, read-out: IC50(2)
[15] = HT-29, 72-h MTT, read-out: Mean IC50 ± SD
[16] = WI-38 normal fibroblast cells, compound at IC50 concentration estimated for BxPC-3 cells
[17] = WI-38 normal fibroblast cells, compound at IC50 concentration obtained for HT-29 cells
[18] = BXPC-3, 24 h, read-out: IC50(1)
[19] = BXPC-3, 24 h, read-out: IC50(2)
[20] = BXPC-3, 24 h, read-out: Mean IC50 ± SD
[21] = BXPC-3, 72 h, read-out: IC50(1)
[22] = BXPC-3, 72 h, read-out: IC50(2)
[23] = BXPC-3, 72 h, read-out: Mean IC50 ± SD
[24] = HT-29, 24 h, read-out: Mean IC50 ± SD
[25] = HT-29, 72 h, read-out: Mean IC50 ± SD
[26] = compound at IC50 concentration estimated for BxPC-3 cells
[27] = compound at IC50 concentration obtained for HT-29 cells
[28] = HT-29, 24-h MTT, read-out: Mean IC50 ± SD

Structure (SMILES)	IC50 [1, 5] [µM]	IC50 [1, 6] [µM]	IC50 [1, 7] [µM]	IC50 [1, 8] [µM]	IC50 [1, 9] [µM]	IC50 [1, 10] [µM]	IC50 [2, 11] [µM]	IC50 [2, 12] [µM]	IC50 [2, 13] [µM]	IC50 [2, 14] [µM]	IC50 [2, 15] [µM]	IC50 [2, 28] [µM]	other results
COC(=O)[C@H](CC(C)C)N[C@@H](c1ccccc1)c1c(O)ccc2ccccc12 (mixture of isomers) [MMZ-167C, (S,S) and (R,R)-methyl ((2-hydroxynaphthalen-1-yl)(phenyl)methyl)-L-leucinate]	71.4	61	66.2 ± 7.36	32.9	31.2	32.1 ± 1.15	47.7	50	27.8	28.4	28.1 ± 0.375		viability at 24 h [3, 16]: 76.8 ± 1.8%; viability at 24 h [3, 17]: 82.19 ± 0.69%
COC(=O)[C@H](Cc1ccccc1)N[C@H](c1ccccc1)c1c(O)ccc2ccccc12 (mixture of isomers) [MMZ-45B, (S,R) and (R,S)-methyl ((2-hydroxynaphthalen-1-yl)(phenyl)methyl)-L-phenylalaninate]													IC50 [1, 18]: 58.5 µM; IC50 [1, 19]: 40.5 µM; IC50 [1, 20]: 49.3 ± 13 µM; IC50 [1, 21]: 35.6 µM; IC50 [1, 22]: 24.7 µM; IC50 [1, 23]: 30.1 ± 7.73 µM; IC50 ([2]; HT-29, 24 h, read-out: IC50(1)): 29 µM; IC50 ([2]; HT-29, 24 h, read-out: IC50(2)): 34.6 µM; IC50 [2, 24]: 31.8 ± 3.93 µM; IC50 ([2]; HT-29, 72 h, read-out: IC50(1)): 29.6 µM; IC50 ([2]; HT-29, 72 h, read-out: IC50(2)): 38.7 µM; IC50 [2, 25]: 34.1 ± 6.39 µM; viability at 24 h [3, 26]: 91.73 ± 0.87%; viability at 72 h [3, 26]: 86.7 ± 8.14%; viability at 72 h [3, 27]: 88.2 ± 1.6%
COC(=O)C[C@H](N[C@H](c1ccccc1)c1c(O)ccc2ccccc12)C(=O)OC (mixture of isomers) [MMZ-147CE, (S,R) and (R,S)-dimethyl ((2-hydroxynaphthalen-1-yl)(phenyl)methyl)-L-aspartate]													IC50 [1, 18]: 54.1 µM; IC50 [1, 19]: 41 µM; IC50 [1, 20]: 47.5 ± 9.26 µM; IC50 [1, 21]: 59.6 µM; IC50 [1, 22]: 34.1 µM; IC50 [1, 23]: 46.8 ± 18 µM; IC50 ([2]; HT-29, 24 h, read-out: IC50(1)): 113 µM; IC50 ([2]; HT-29, 24 h, read-out: IC50(2)): 110 µM; IC50 [2, 24]: 112 ± 2.12 µM; IC50 ([2]; HT-29, 72 h, read-out: IC50(1)): 37.1 µM; IC50 ([2]; HT-29, 72 h, read-out: IC50(2)): 46.1 µM; IC50 [2, 25]: 41.6 ± 6.32 µM; viability at 24 h [3, 26]: 82.5 ± 1.8%; viability at 72 h [3, 27]: 66.9 ± 1.08%
COC(=O)[C@@H](N[C@@H](c1ccc(Cl)cc1)c1c(O)ccc2ccccc12)C(C)C (mixture of isomers) [MMZ-39AA, (S,S) and (R,R)-methyl ((4-chlorophenyl)(2-hydroxynaphthalen-1-yl)methyl)-D-valinate]	61.4	60.3	60.8 ± 0.8	44.8	41.6	43.2 ± 2.26	62.1	64	50.6	65.6	58.1	63.1 ± 1.36	viability at 72 h [3, 17]: 64 ± 4.9%
COC(=O)CC[C@H](N[C@@H](c1ccccc1)c1c(O)ccc2ccccc12)C(=O)OC (mixture of isomers) [MMZ-148B, (S,S) and (R,R)-dimethyl ((2-hydroxynaphthalen-1-yl)(phenyl)methyl)-L-glutamate]													solubility [4]: poor solubility
COC(=O)C[C@H](N[C@@H](c1ccccc1)c1c(O)ccc2ccccc12)C(=O)OC (mixture of isomers) [MMZ-147B, (S,S) and (R,R)-dimethyl ((2-hydroxynaphthalen-1-yl)(phenyl)methyl)-L-aspartate]	44.8	59.7		69.8	39.3	54.6	44.2	46.8	12.2	17.6	14.9 ± 3.8	45.5 ± 1.77	viability at 24 h [3, 16]: 69.94 ± 0.21%; viability at 72 h [3, 16]: 72.5 ± 4.37%; viability at 72 h [3, 17]: 86.8 ± 5%
COC(=O)[C@@H](N[C@@H](c1ccccc1)c1c(O)ccc2ccccc12)C(C)C (mixture of isomers) [MMZ-33D, (S,S) and (R,R)-methyl ((2-hydroxynaphthalen-1-yl)(phenyl)methyl)-D-valinate]	47.8	50.8	49.3 ± 2.09	50	28.7	39.4 ± 15.1	60.4	61.9	32.3	43.4	37.9 ± 7.86	61.1 ± 1.02	
COC(=O)CC[C@H](N[C@H](c1ccccc1)c1c(O)ccc2ccccc12)C(=O)OC (mixture of isomers) [MMZ-148C, (S,R) and (R,S)-dimethyl ((2-hydroxynaphthalen-1-yl)(phenyl)methyl)-L-glutamate]													solubility [4]: poor solubility
O=c1[nH]cc(F)c(=O)[nH]1 [5-Fluorouracil, reference compound]	49.4	28.6	39 ± 14.7	14.8	12.1	13.4 ± 1.9	48.8	55.7	5.16	3.6	4.38 ± 1.1	52.3 ± 4.9	
